Test results as given in article PMC12463534, “Exploring the Anticancer Properties of 4-Phenylthiazole-Based Ru(II) and Os(II) Metallacycles Featuring 1-Methylimidazole as N-Donor Functionality” (Bioinorganic Chemistry and Applications, 2025).

How the values were obtained:
[1] = system: G4 forming sequences (h-Telo, bcl2, hTERT, Kit1, Kit2) and dsDNA; parameters: method as in PMID 38426897; settings: recent work; ref [5]; cited from earlier work
[2] = system: HCT116 colorectal cancer cell line (2D); assay: Resazurin assay, HCT116 2D (monolayer) culture
Description: (§2) Both models were investigated by the fluorimetric resazurin assay after 96-h exposure.
(§3) HCT116 colorectal carcinoma cells (RRID:CVCL_0291 from ATCC) were cultivated in McCoy's 5A medium, supplemented with 10% heat-inactivated fetal bovine serum and 4 mM L-glutamine.
(§4) For 2D experiments, HCT116 cells were harvested from culture flasks by trypsinization, seeded in 100-μL aliquots into 96-well microculture plates (CytoOne, TC-treated, from Starlab) in densities of 2 × 10^3 cells per well, and incubated for 24 h prior to exposure to the test compounds. […] Stock solutions of test compounds were prepared in DMF, which were then diluted in McCoy's 5A-supplemented medium (not to exceed a final content of 0.5% v/v of organic solvent in the test plates), and serial dilutions were added in aliquots of 100 μL per well. […] After incubation for 4 h, fluorescence was measured with a microplate reader (Bio-Tek, SynergyHT) at a wavelength of 530 nm, additionally using a reference wavelength of 620 nm.

[3] = system: CH1/PA-1 ovarian teratocarcinoma cells; parameters: method as in PMID 38426897; settings: MTT assay, exposure time 96 h; ref [5]; read-out: 50% inhibitory concentration CH1 (chlorido complexes, reference) (converted); cited from earlier work
[4] = system: Balb/c mice; assay: Toxicity experiments in Balb/c mice (MTD); settings: mice, i.p.
Description: Finally, we were interested in the anticancer activity of selected complexes of our panel in an in vivo mouse setting. Before injecting the compounds in tumor-bearing mice, toxicity experiments were performed. […] On the last day of therapy, most animals were sacrificed and tissues as well as tumors collected. Only four mice (per group) were kept to get information on the impact of the drugs on the overall survival.

[5] = system: SW480 colon adenocarcinoma cells; parameters: method as in PMID 38426897; settings: MTT assay, exposure time 96 h; ref [5]; read-out: 50% inhibitory concentration SW480 (chlorido complexes, reference) (converted); cited from earlier work
[6] = system: CT26 tumor; assay: Anticancer activity in CT26 tumor-bearing BALB/c mice; assay type: in vivo; settings: i.p. 50 mg/kg, 5 times a week for two weeks, did not reach statistical significance
Description: Figure 5 Anticancer activity of 1c and 3c in vivo. CT26-bearing BALB/c mice were treated i.p. with 50 mg/kg for five consecutive days for 2 weeks. (a) Impact on tumor growth; data are presented as mean ± SEM. […] On Day 15, most of the animals were sacrificed and tissues collected for further analyses. Of each group, 4 animals were kept to assess the impact on overall survival, which is shown in (b). Statistical significance was tested by log-rank test and Mantel–Cox post-test, ^∗p < 0.01. (c) The ruthenium levels measured by ICP-MS in the collected tissue samples of the mice, which were sacrificed 2 h after the last treatment.
(§1) CT26 cells (5 × 10^5 cells in 50-μL serum-free medium) were injected subcutaneously (s.c.) into the right flank of 8–16-week-old BALB/c mice (Envigo Laboratories, San Pietro Al Natisone, Italy). After 3 days, therapy treatment started on five consecutive days for 2 weeks. Animals were treated i.p. with 50 mg/kg 1c and 3c (all dissolved in 10% DMSO in 0.9% NaCl, 12 mice per group). The solvent control animals received 10% DMSO in 0.9% NaCl. Every day, the animals were monitored for the overall health conditions and tumor size was measured regularly by caliper measurement. Tumor volumes (mm^3) were calculated using following formula: length × width^2/2. In the overall survival arm of the experiment, mice were sacrificed by cervical dislocation in the case of a tumor length > 20 mm or tumor ulceration or a decreased body weight of ∼20%. Tumor growth and possible side effects of the treatment were evaluated by daily recording the tumor size by caliper measurement and parameters of the animal's overall health conditions. In the tissue sampling arm at the experiment, the mice were sacrificed by cervical dislocation 2 h after the last treatment. Tumors as well as organs were collected. Additionally, blood was drawn and incubated for 25 min to allow blood clotting. To isolate serum and blood pellets, the blood was centrifuged for 10 min at 17,900 g at room temperature. The supernatant characterized as serum was transferred to a new tube and centrifuged again to remove residual red blood cells. All collected samples were stored at −20°C and further processed for platinum measurements via ICP-MS.

[7] = system: A549 lung adenocarcinoma cells; parameters: method as in PMID 38426897; settings: MTT assay, exposure time 96 h; ref [5]; read-out: 50% inhibitory concentration A549 (chlorido complexes, reference) (converted); cited from earlier work
[8] = system: SW480 cells; assay: DCFH-DA assay, cellular ROS levels; assay type: cell-based, human; settings: 2 h, concentration dependent
Description: For this approach, SW480 cells were subjected to the 2′,7′-dichlorofluorescin-diacetate (DCFH-DA) assay.
SW480 colon adenocarcinoma cells were trypsinized for 5 min in a humidified incubator at 37°C and under a 5% CO2 atmosphere. Supplemented MEM was added to stop trypsinization, and cells were centrifuged for 3 min at 1200 rpm (Heraeus Megafuge 1.0R). After cell counting, SW480 cells were seeded in 100-μL aliquots in densities of 2.5 × 10^4 cells/well into 96-well clear flat-bottom microplates (CytoOne, TC-treated, from Starlab). After incubation for 24 h, cells were washed with 200 μL of Hanks' balanced salt solution (HBSS; Sigma-Aldrich; supplemented with 1% heat-inactivated FCS). […] After washing cells with 200 μL of supplemented HBSS, serially diluted test compounds in phenol-red-free Opti-MEM (Gibco), supplemented with 1% heat-inactivated FCS, were added in 200-μl triplicates and tert-butyl hydroperoxide (TBHP) was applied as positive control. […] Blank-corrected values were calculated relative to negative controls (treated with drug-free supplemented Opti-MEM) from three independent experiments.

[9] = system: HCT116 multicellular tumor spheroids (3D); assay: Resazurin assay, HCT116 3D multicellular tumor spheroids
Description: as §2, §3, §4

[10] = Ruthenium levels in tissues by ICP-MS; assay type: in vivo; settings: CT26-bearing mice, 2 h after last injection
Description: Tumor-specific organs and blood serum, harvested from the other animals 2 h after the last injection (Figure 5(c)), were measured for the average ruthenium content by inductively coupled plasma mass spectrometry (ICP-MS) of tissue homogenates.
as §1, with “In the overall survival arm of the experiment, mice were sacrificed by cervical dislocation in the case of a tumor length > 20 mm or tumor ulceration or a decreased body weight of ∼20%.” left out
The ruthenium concentration was determined by ICP-MS analysis. Ruthenium and rhenium standards were derived from LabKings (LabKings B.V., The Netherlands). The total ruthenium content was determined with a quadrupole-based ICP-MS instrument Agilent 7800 (Agilent Technologies, Tokyo, Japan) equipped with the Agilent SPS 4 autosampler (Agilent Technologies, Tokyo, Japan) and a MicroMist nebulizer at a sample uptake rate of approximately 0.2 mL·min^−1. […] Argon was used as plasma gas (15 L·min^−1) and as carrier gas (∼1.08 L·min^−1). The integration time was set to 0.1 s, and measurements were performed in 6 replicates with 100 sweeps. Rhenium served as internal standard for ruthenium.

## CS(=O)(=O)c1ccc(-c2cscn2)[c]([Ru][Cl])c1.Cc1ccc(C(C)C)cc1 [Compound 1c]
[1]
  Stabilization of DNA G-quadruplex structures: stabilize DNA G-quadruplex (G4) structures
[2]
  Increase of cytotoxic activity by mesylation (1c vs 1a), 2D: 2.8 times
[2]; read-out: IC50 2D, resazurin assay, 96 h exposure
  IC50: 6.5 ± 1.3 µM
[3]
  IC50: 1.6 µM
[4]
  Tolerated dose: at least 50 mg/kg
[5]
  IC50: 5.1 µM
[6]
  Impact on tumor volume (anticancer activity): slight anticancer activity
[7]
  IC50: 12 µM
[8]
  Effect on intracellular ROS levels: constantly decrease ROS levels with increasing concentrations
[9]; HCT116 3D
  Enhancement of cytotoxic activity by mesylation (1c vs 1a), 3D: 3.5 fold
[9]; read-out: IC50 3D, HCT116 3D spheroids, resazurin assay, 96 h exposure
  IC50: 8.9 ± 2.1 µM
[10]
  Kidney ruthenium levels, fold higher compared to 3c: 10 fold
  Ruthenium level in liver: ~20 mg/kg
  Ruthenium level in tumor: ~1 mg/kg
